# From patent US20090239880A1, “COMBINATIONS OF MONOAMINE REUPTAKE INHIBITORS AND POTASSIUM CHANNEL ACTIVATORS” (priority 2006, published 2009)
# Counter-ions that a name gives are not always drawn.
# What was measured:
# [1] = molecular target: SK3 channels (Homo sapiens, UniProt Q9UGI6); assay: inhibition of SK3 channels in patchclamp electrophysiology (selectivity over monoamine reuptake in vitro); format: cell-based; settings: patchclamp electrophysiology vs [3H]DA, [3H]5-HT and [3H]NA reuptake in vitro
# [2] = test system: NMRI mice; assay: nialamide induced 5-HT syndrome paradigm; format: in vivo; settings: nialamide 50 mg/kg s.c. at -120 min, test compound 0.3-3 mg/kg i.p. combined with sub-threshold citalopram 1 mg/kg p.o. at 0 min
# Experimental: Method: Mice were administered nialamide (50 mg/kg, s.c., −120 min) followed by the test compound (0.3-3 mg/kg, i.p.) and citalopram (1 mg/kg, p.o) at time-point 0 min. The presence of head twitches, hindlimb abduction, head weaving, and piano playing behaviours were then scored by a trained observer using a recognised rating scale: maximum score/mouse=4, minimum score/mouse=0.
# [3] = test system: NMRI mice; assay: reversal of tetrabenazine-induced ptosis; format: in vivo; settings: test compound 0.3-3 mg/kg i.p. combined with sub-threshold reboxetine 0.1 mg/kg p.o. at -60 min, tetrabenazine 40 mg/kg i.p. at -30 min
# Experimental: Method: Mice were administered the test compound (0.3-3 mg/kg, i.p.) and reboxetine (0.1 mg/kg, p.o.) at timepoint −60 min, followed by tetrabenazine (40 mg/kg, i.p., −30 min). The presence of ptosis was then scored by a trained observer using a recognised rating scale: maximum score/mouse=4, minimum score/mouse=0.
melting point,SMILES,further results
256 to 258 °C,"c1ccc(C(c2ccccc2)C2CCN(c3nc4ccccc4[nH]3)CC2)cc1 [Example 13, 2-(4-Benzhydryl-piperidin-1-yl)-1H-benzoimidazole]",
237 to 239 °C,"OC(c1ccccc1)(c1ccccc1)C1CCN(c2nc3ccccc3[nH]2)CC1 [Example 3, [1(1H-Benzoimidazol-2-yl)-piperidin-4-yl]diphenylmethanol]",
> 240 °C (dec.),"Fc1ccc(C(c2ccc(F)cc2)N2CCN(c3nc4ccccc4[nH]3)CC2)cc1 (as salt: hydrochloride) [Example 9, 2-{4-[Bis-(4-fluorophenyl)methyl]piperazin-1-yl}-1H-benzoimidazole]",
124 to 125.5 °C,"FC(F)(F)c1cc(Cn2c(N3CCC(Cc4ccccc4)CC3)nc3ccccc32)ccc1Cl [Example 4, 2-(4-Benzylpiperidin-1-yl)-1-[4-chloro-3-(trifluoromethyl)benzyl]-1H-benzoimidazole]",
297 to 298 °C,"Clc1ccc(OC2CCN(c3nc4ccccc4[nH]3)CC2)cc1Cl (as salt: hydrochloride) [Example 10, 2-[4-(3,4-Dichlorophenoxy)piperidin-1-yl]-1H-benzoimidazole]",
268 to 270 °C,"Clc1ccc(CC2CCN(c3nc4ccccc4[nH]3)CC2)cc1Cl (as salt: salt) [Example 1, 2-[4-(3,4-Dichlorobenzyl)piperidin-1-yl]-1H-benzoimidazole]",

# The remaining lines, values behind:
SMILES,melting point,further results
"c1ccc(CC2CCN(c3nc4ccccc4[nH]3)CC2)cc1 [Example 2, 2-(4-Benzylpiperidin-1-yl)-1H-benzoimidazole]",193 to 194 °C,
"c1ccc(C(c2ccccc2)N2CCN(c3nc4ccccc4[nH]3)CC2)cc1 [Example 6, 2-(4-Benzhydrylpiperazin-1-yl)-1H-benzoimidazole]",> 230 °C (dec.),
"N=c1n(Cc2ccc(F)c(F)c2)c2ccccc2n1Cc1ccc(F)c(F)c1 [test compound, 1,3-Bis-(3,4-difluoro-benzyl)-1,3-dihydro-benzoimidazol-2-ylideneamine]",,"selectivity for inhibition of SK3 channels over inhibiton of [3H]DA, [3H]5-HT and [3H]NA reuptake [1]: more than 100 fold; effect on ability of citalopram to induce symptoms analagous to the serotonin syndrome (5-HT syndrome score) [2]: enhanced the ability of the latter to induce symptoms analagous to the serotonin syndrome; effect on ability of reboxetine to reverse tetrabenazine-induced ptosis (ptosis score) [3]: enhanced the ability of the latter to reverse tetrabenazine-incuced ptosis"
"c1ccc(C(=C2CCN(c3nc4ccccc4[nH]3)CC2)c2ccccc2)cc1 [Example 12, 2-(4-Benzhydrylidene-piperidin-1-yl)-1H-benzoimidazole]",229 to 230 °C,
"Fc1ccc(Cn2c(N3CCC(Cc4ccccc4)CC3)nc3ccccc32)cc1F [Example 5, 2-(4-Benzylpiperidin-1-yl)-1-(3,4-difluorobenzyl)-1H-benzoimidazole]",155 to 155.5 °C,
